In test [1] the test system is plasma membrane preparations of rat jejunum. In words: I125-obestatin radioligand binding to jejunal membranes. The settings on record: for competition for labeled obestatin binding: displacement of iodinated wild type obestatin, rat jejunal membranes. As for the experimental part: Iodination of obestatin was performed using the lodogen (Pierce, Upland, Ind.) procedure. Mixtures of the peptide (20 μg) and 1 mCi [125I] Nal were transferred to precoated lodogen vials and incubated for 4 min. The 125I-labeled peptide was applied to a Sep-Pak C18 cartridge (Waters) before elution with 60% acetonitrile/0.1% TFA. For radioligand binding assays, rat jejunum or other tissues were washed with buffer A (20 mM Hepes, 5 mM EDTA, 1 mM dithiothreitol (DTT), 10 μM amidinophenylmethanesulfonyl fluoride, 5 mg/L leupeptin, 100 mM KCl, pH 7.5), cut into small pieces, and homogenized using a motorized homogenizer. The homogenates were centrifuged at 1,000 g for 5 min. and the supernatant was centrifuged at 300,000 g for 1 hour at 2° C. The pellets (crude membrane fractions) were resuspended with buffer A without KCl, quickly frozen under liquid nitrogen, and stored at −80° C. until use.
After incubation, the tubes were centrifuged for 10 min. at 10,000 g, and pellets were washed twice in ice-cold PBS before quantitation of radioactivity with a γ-spectrophotometer. Specific binding was calculated by subtracting nonspecific binding from total binding.

Test [2] in a line: Food intake in mice after peptide injection. Format: in vivo. The method, then:
(§1) Analysis of gastrointestinal functions. Eight-week-old C57BL6 male mice were housed individually in a regulated environment. Before intraperitoneal treatment with different peptides, mice were deprived of food for 16 hours with free access to water. Food intake was measured by placing preweighed pellets in the cage and weighing uneaten pellets at 5 hours after treatment. For intracerebroventricular injection of different peptides, mice were deprived of food for 16 hours. Free-hand injections were performed at 2 hours after light onset and food intake monitored for 5 hours. To estimate gastric emptying responses, mice deprived of food for 16 hours were given food pellets for 90 min. before injection of different hormones or saline. After treatment, mice were deprived of food again and sacrificed 0.5, 1, and 2 hours later. The stomach was excised at the pylorus and cardia before weighing. Gastric emptying was calculated by subtracting the stomach weight of treated mice from those sacrificed at the time of peptide injection.

The test system of test [3] is jejunum muscle strips. In words: Isometric force measurement of jejunal muscle strips. The conditions noted are these: in vitro; for contractile activity of jejunum muscle strips: isometric force, percent of maximal acetylcholine contraction. The method, then: Isometric force measurements. Strips of jejunal muscle (˜1 cm in length) were cut along the longitudinal axis of the circular muscle layer and the mucosa was removed to minimize contamination with endogenous peptides. Muscle strips were mounted to a TIS8105R (Kent Scientific Corporation, Torrington, Conn.) isometric strain gauge and immersed in a 5 ml organ bath maintained at 37° C. with oxygenated KRB [Krebs-Ringer phosphate buffer, consisting of 50 mM HEPES, 100 mM NaCl, 5 mM KCl, and 1 mM each of MgCl2, NaH2PO4, and CaCl2] as previously described. A resting force of 1.0 g was applied to intestinal muscles and a 1.5 hours equilibration period was allowed before testing of different peptides during a 5 min. period. After each test, muscle strips were washed with fresh KRB for 20 min. to allow full recovery of basal contractile activities. Maximal contraction was evaluated at the beginning and end of each experiment after treatment with 10 μM of acetylcholine chloride. Contractility data were digitized and stored in a computer using DAS Wizard™ (Measurement Computing, Middleboro, Mass.). The magnitude of contractile strength is expressed as percent of maximal contraction induced by acetylcholine.

The subject of test [4] is cultured rat pituitary cells. In words: Growth hormone secretion by cultured anterior pituitary cells. Format: cell-based. The conditions noted are these: 1 hour incubation. The method, then:
Pituitary cell cultures. Anterior pituitaries were removed from adult male Sprague-Dawley rats and dispersed with 0.3% collagenase, 0.1% hyaluronidase and DNase I (10 μg/ml). The cell suspension was centrifuged at 300 g for 5 min. and cells were washed twice before incubation in Dulbecco minimal essential medium (DMEM) containing 0.1% bovine serum albumin (BSA), penicillin (100 units/ml), streptomycin (100 μg/ml), fungizone (2.5 μg/ml), and 10% fetal calf serum. Cells were seeded onto poly-lysine-coated 24-well plates at a density of ˜3×10^5 cells/well. Cultures were kept in a humidified atmosphere of 5% CO2 and 95% air at 37° C. […] Media was removed for growth hormone measurement by an enzyme-linked immunosorbent assay.

Test [5] can be described thus: Gastric emptying in mice. The settings on record: 1 μmol per kg body weight, 0.5, 1 and 2 hours after treatment. Format: in vivo. The method, then: as §1
Test [6] can be described thus: Body weight in adult male rats under long-term peptide treatment. Format: in vivo. The conditions noted are these: 1 μmol per kg body weight, three times daily. An excerpt: The observed inhibition of jejunal contraction may trigger an afferent vagus signal to induce a central satiety response.
The mark [7] stands for this setting: intracerebroventricular treatment, 8 nmol per kg body weight, mice, monitored for 5 hours.
[8] abbreviates: intraperitoneal injection, adult male mice deprived of food for 16 hours, cumulative intake up to 5 hours.

Ends that are not written are not given here. * marks the point of attachment. Octanoyl = CCCCCCCC(=O)*

With “I125-obestatin: obestatin iodinated with [125I] NaI by the Iodogen procedure”, the “specific binding of I125-obestatin” value in test [1] (saturation binding, crude plasma membrane fractions of rat jejunum) is on record as “High affinity binding”.

On to MTII [reference compound], for which the food intake result in test [2] (setting [7]) is reported as “anorexigenic effect”.

As to “FNAPFDVGIKLSGVQYQQHSQALG (human) [NA-obestatin]”, the food intake result in test [2] (setting [8]) was “less effective”.

For “FNAPFDVGIKLSGVLYQQHSQAL-NH2 [L15-obestatin]”, in test [1], the “competition for labeled obestatin binding” value is reported as “potency similar to the wild type obestatin”.

Turning to FNAPFDVGIKLSGVQYQQHSQAL-NH2 [obestatin], the “contractile activity of jejunum muscle strips” value in test [3] was “decreased the contractile activity”. The “effect on ghrelin-stimulated contractile activity of jejunum muscle strips” value in test [3] (together with ghrelin) is “antagonized the stimulatory effect of ghrelin”. Besides, the growth hormone secretion entry in test [4] is listed as “did not increase GH secretion”. Besides, the gastric emptying activity result in test [5] is “sustained suppression of gastric emptying activity”. In test [6], the body weight result was “suppressed body-weight gain”. Also, the food intake result in test [2] (setting [7]) is “decreased food intake”; in test [2] (setting [8]), “suppressed food intake in a time- and dose-dependent manner”.

With “ghrelin: peptide of 28 amino acids, serine-3 n-octanoylated; endogenous GHSR ligand; purchased from Phoenix Pharmaceuticals (GSS(Octanoyl)FLSPEHQRVQQRKESKKPPAKLQPR; UniProt Q9UBU3 24-51, looked up) [reference compound]”, the “contractile activity of jejunum muscle strips” value in test [3] is given as “stimulatory effect”. Also, the growth hormone secretion result in test [4] was “stimulated growth hormone secretion”. In test [6], the body weight entry is “increased body weight”. Also, the “competition for labeled obestatin binding” value in test [1] is listed as “does not compete”.
